Values quoted from earlier work as cited in patent publication US20090274776A1, “Method for the Diagnosis and Treatment of Conditions Involving Aberrant Erythrocyte Potassium Levels” (THE REGENTS OF THE UNIVERSITY OF MICHIGAN, priority 2006, published 2009).

Legend:
RBC = RBC treated with the substance; by activation of IKCa
KCa in RBC = molecular target: T1, KCa in RBC (Homo sapiens, UniProt O15554); settings: red blood cells
T1 construct: host or cells: red blood cells (endogenous channel)

[1] = test system: endothelium-derived hyperpolarizing factor (EDHF); settings: in the presence of apamin

Structure (SMILES)	K+ efflux in RBC (RBC)	effect on KCa in RBC (KCa in RBC)	EDHF relaxation [1]
Nc1nc2c(nc(Br)n2[C@@H]2O[C@@H]3COP(=O)(O)O[C@H]3[C@H]2O)c(=O)[nH]1 [8Br-cGMP]	increased	–	–
OC1(c2cccc(Cl)c2)C2=NCCCN2c2ccccc21 (stereo not shown) [Ciclazindol]	–	inhibits	abolishes
CC1(C)Oc2ccc(C#N)cc2C(N2CCCC2=O)C1O (stereo not shown) [cromakalim]	–	opens	–
